The experiment concerns the target T1, human TLR9 (Homo sapiens, UniProt Q9NR96).
T1 construct: host or cells: HEK-Blue cells (HEK293-derived reporter line)
T1 sequence (Q9NR96 26-1032): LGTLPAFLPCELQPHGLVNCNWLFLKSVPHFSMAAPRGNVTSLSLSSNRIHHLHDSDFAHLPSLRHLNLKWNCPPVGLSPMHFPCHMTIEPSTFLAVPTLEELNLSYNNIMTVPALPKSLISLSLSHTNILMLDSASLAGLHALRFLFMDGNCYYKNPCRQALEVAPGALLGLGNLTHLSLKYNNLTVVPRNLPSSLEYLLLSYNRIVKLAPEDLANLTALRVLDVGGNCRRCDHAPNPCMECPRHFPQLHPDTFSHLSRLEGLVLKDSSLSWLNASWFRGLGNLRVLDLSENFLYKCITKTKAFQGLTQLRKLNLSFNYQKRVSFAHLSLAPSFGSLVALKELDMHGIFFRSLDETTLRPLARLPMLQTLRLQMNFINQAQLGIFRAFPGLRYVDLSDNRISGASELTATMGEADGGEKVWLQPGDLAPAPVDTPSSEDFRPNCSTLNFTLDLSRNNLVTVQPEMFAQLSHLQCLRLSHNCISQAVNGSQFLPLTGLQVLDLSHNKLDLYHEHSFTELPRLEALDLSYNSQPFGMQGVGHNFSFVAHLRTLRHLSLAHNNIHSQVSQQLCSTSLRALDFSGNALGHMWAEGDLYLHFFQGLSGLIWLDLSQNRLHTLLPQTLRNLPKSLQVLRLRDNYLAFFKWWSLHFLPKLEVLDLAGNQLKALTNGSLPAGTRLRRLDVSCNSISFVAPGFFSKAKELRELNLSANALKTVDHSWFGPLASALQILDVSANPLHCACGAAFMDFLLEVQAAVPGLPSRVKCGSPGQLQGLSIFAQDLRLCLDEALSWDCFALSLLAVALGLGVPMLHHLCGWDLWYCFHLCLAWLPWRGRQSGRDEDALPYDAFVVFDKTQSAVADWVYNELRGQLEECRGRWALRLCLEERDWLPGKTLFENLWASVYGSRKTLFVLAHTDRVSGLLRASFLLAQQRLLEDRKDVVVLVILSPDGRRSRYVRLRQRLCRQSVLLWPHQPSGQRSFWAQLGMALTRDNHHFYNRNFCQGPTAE
Nature of the experiment: TLR9 inhibition reporter assay (HEK-Blue cells, secreted embryonic alkaline phosphatase reporter). The format is cell-based. In outline:
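Cells seeded at 15000 (TLR7), 20,000 (TLR8) or 25,000 (TLR9) per well; compound 0.05 nM–50 μM, 30 min RT pre-incubation. Agonists: gardiquimod 7.5 μM, R848 15.9 μM, ODN2006 5 nM respectively. 22 h, 37 °C; SEAP via HEK-Blue Detection; % inhibition vs agonist+DMSO and known-inhibitor wells.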

[1] abbreviates: HEK-Blue cells overexpressing human TLR9, stimulated with ODN2006 5 nM, read-out: TLR 9 IC50.
[2] abbreviates: HEK-Blue human TLR9 reporter cells.
Where [3] appears, read: HEK-Blue cells overexpressing human TLR9, stimulated with ODN2006 5 nM, 22 hour incubation, reporter readout.

Read-outs that look alike come from different tables or passages of the source.

For `Cc1c(C2CCN(C3CCN(CC(C)C)CC3)CC2)ccc2nc(-c3ccc(S(C)(=O)=O)cc3)n(C)c12` [Example 330, 6-(1′-isobutyl-[1,4′-bipiperidin]-4-yl)-1,7-dimethyl-2-(4-(methylsulfonyl)phenyl)-1H-benzo[d]imidazole], the IC50 was 1390 nM under setting [1] and 1400 nM under setting [2]. For `Cc1cc2nc(-c3ccc(S(C)(=O)=O)cc3)n(C)c2cc1C1CCN(C2CCN(CC(C)C)CC2)CC1` [Example 331, 6-(1′-isobutyl-[1,4′-bipiperidin]-4-yl)-1,5-dimethyl-2-(4-(methylsulfonyl)phenyl)-1H-benzo[d]imidazole], in that order: 143 nM and 140 nM. With `Cc1cc(C2CCN(C3CC4CCC(C3)N4CC3CC3)CC2)cc2c1nc(-c1ccc(S(C)(=O)=O)c(F)c1)n2C` (centres unmarked) [Example 340, 6-(1-(8-(cyclopropylmethyl)-8-azabicyclo[3.2.1]octan-3-yl)piperidin-4-yl)-2-(3-fluoro-4-(methylsulfonyl)phenyl)-1,4-dimethyl-1H-benzo[d]imidazole], the IC50 turned out to be 84 nM under setting [1] and 84 nM under setting [2].

For `Cc1cc(C2CCN(C3CC4CCC(C3)N4C3CC3)CC2)cc2c1nc(-c1ccc(S(C)(=O)=O)c(F)c1)n2C` (centres unmarked) [Example 345, 6-(1-(8-cyclopropyl-8-azabicyclo[3.2.1]octan-3-yl)piperidin-4-yl)-2-(3-fluoro-4-(methylsulfonyl)phenyl)-1,4-dimethyl-1H-benzo[d]imidazole], the IC50 under setting [1] was 132 nM and inhibition under setting [2] was half-maximal at 130 nM (IC50). With `Cc1cc(C2CCN(C3CC4CCC(C3)N4C3CC3)CC2)cc2[nH]c(-c3ccc(S(C)(=O)=O)c(F)c3)nc12` (centres unmarked) [Example 347, 6-(1-(8-cyclopropyl-8-azabicyclo[3.2.1]octan-3-yl)piperidin-4-yl)-2-(3-fluoro-4-(methylsulfonyl)phenyl)-4-methyl-1H-benzo[d]imidazole], the IC50 runs as follows: under setting [1], 44 nM; under setting [2], 44 nM. Consider `Cc1cc(C2CCN(C3CC4CCC(C3)N4C(C)C)CC2)cc2[nH]c(-c3ccc(S(C)(=O)=O)c(F)c3)nc12` (centres unmarked) [Example 348, 2-(3-fluoro-4-(methylsulfonyl)phenyl)-6-(1-(8-isopropyl-8-azabicyclo[3.2.1]octan-3-yl)piperidin-4-yl)-4-methyl-1H-benzo[d]imidazole], for which the IC50 reads like this: under setting [1], 180 nM; under setting [2], 180 nM. `Cc1cc(C2CCN(C3CC4CCC(C3)N4C3CCC3)CC2)cc2[nH]c(-c3ccc(S(C)(=O)=O)c(F)c3)nc12` (centres unmarked) [Example 349, 6-(1-(8-cyclobutyl-8-azabicyclo[3.2.1]octan-3-yl)piperidin-4-yl)-2-(3-fluoro-4-(methylsulfonyl)phenyl)-4-methyl-1H-benzo[d]imidazole]: the 50% inhibitory concentration (IC50) was determined as 24 nM under setting [1] and 24 nM under setting [2]. `Cc1cc(C2CCN(C3CC4CCC(C3)N4C3CCC3)CC2)cc2[nH]c(-c3ccc(S(C)(=O)=O)c(F)c3)nc12` (centres unmarked) [Example 350, 6-(1-(8-cyclobutyl-8-azabicyclo[3.2.1]octan-3-yl)piperidin-4-yl)-2-(3-fluoro-4-(methylsulfonyl)phenyl)-4-methyl-1H-benzo[d]imidazole]: the IC50 under setting [1] turned out to be 55 nM and half-maximal inhibition under setting [2] (IC50) required 55 nM. In the case of `Cc1cc(C2CCN(C3CC4CCC(C3)N4CC3CC3)CC2)cc2[nH]c(-c3ccc(S(C)(=O)=O)c(F)c3)nc12` (centres unmarked) [Example 351, 6-(1-(8-(cyclopropylmethyl)-8-azabicyclo[3.2.1]octan-3-yl)piperidin-4-yl)-2-(3-fluoro-4-(methylsulfonyl)phenyl)-4-methyl-1H-benzo[d]imidazole], the IC50 is, setting by setting: under setting [1], 48 nM; under setting [2], 48 nM.

Turning to `Cc1cc(C2CCN(C3CC4CCC(C3)N4CC3CC3)CC2)cc2[nH]c(-c3ccc(S(C)(=O)=O)c(F)c3)nc12` (centres unmarked) [Example 352, 6-(1-(8-(cyclopropylmethyl)-8-azabicyclo[3.2.1]octan-3-yl)piperidin-4-yl)-2-(3-fluoro-4-(methylsulfonyl)phenyl)-4-methyl-1H-benzo[d]imidazole], the IC50 amounted to 26 nM under setting [1] and 26 nM under setting [2]. On to `COc1cc(-c2nc3c(C)cc(C4CCN(C5CC6CCC(C5)N6C5CCC5)CC4)cc3[nH]2)cn2ncnc12` (centres unmarked) [Example 361, 6-(6-(1-(8-cyclobutyl-8-azabicyclo[3.2.1]octan-3-yl)piperidin-4-yl)-4-methyl-1H-benzo[d]imidazol-2-yl)-8-methoxy-[1,2,4]triazolo[1,5-a]pyridine], for which the IC50 came out at 20 nM under setting [1] and 21 nM under setting [2]. In the case of `COc1cc(-c2nc3c(C)cc(C4CCN(C5CC6CCC(C5)N6C(C)C)CC4)cc3[nH]2)cn2ncnc12` (centres unmarked) [Example 362, 6-(6-(1-(8-isopropyl-8-azabicyclo[3.2.1]octan-3-yl)piperidin-4-yl)-4-methyl-1H-benzo[d]imidazol-2-yl)-8-methoxy-[1,2,4]triazolo[1,5-a]pyridine], the IC50 under setting [1] was 152 nM and the IC50 under setting [2] came out at 150 nM. Turning to `Cc1cc(-c2ccc(CCN3CCC(C)(O)CC3)cc2)cc2c1nc(-c1ccc(S(C)(=O)=O)cc1)n2C` [Example 366, 1-(4-(1,4-dimethyl-2-(4-(methylsulfonyl)phenyl)-1H-benzo[d]imidazol-6-yl)phenethyl)-4-methylpiperidin-4-ol], inhibition under setting [3] was half-maximal at 450 nM (IC50) and the IC50 under setting [1] worked out at 446 nM. With `CN(C)C1CCN(Cc2ccc(-c3ccc4nc(-c5cc(F)cc(F)c5)n(C)c4c3)cc2)CC1` [Example 381, 1-(4-(2-(3,5-difluorophenyl)-1-methyl-1H-benzo[d]imidazol-6-yl)benzyl)-N,N-dimethylpiperidin-4-amine], the IC50 runs as follows: under setting [3], 140 nM; under setting [1], 140 nM. As to `CN(C)C1CCN(Cc2ccc(-c3ccc4nc(-c5ccc(F)c(F)c5)n(C)c4c3)cc2)CC1` [Example 382, 1-(4-(2-(3,4-difluorophenyl)-1-methyl-1H-benzo[d]imidazol-6-yl)benzyl)-N,N-dimethylpiperidin-4-amine], the IC50 reads like this: under setting [3], 3.2 nM; under setting [1], 3240 nM.

Regarding `CN(C)C1CCN(Cc2ccc(-c3ccc4nc(-c5cccc(S(C)(=O)=O)c5)n(C)c4c3)cc2)CC1` [Example 384, N,N-dimethyl-1-(4-(1-methyl-2-(3-(methylsulfonyl)phenyl)-1H-benzo[d]imidazol-6-yl)benzyl)piperidin-4-amine], the IC50 runs as follows: under setting [3], 41 nM; under setting [1], 41000 nM.

With `CC(C)N1CC2(CN(Cc3ccc(-c4cc(F)c5nc(-c6ccc(S(C)(=O)=O)cc6)n(C6CC6)c5c4)cc3)C2)C1` [Example 410, 1-cyclopropyl-4-fluoro-6-(4-((6-isopropyl-2,6-diazaspiro[3.3]heptan-2-yl)methyl)phenyl)-2-(4-(methylsulfonyl)phenyl)-1H-benzo[d]imidazole], the IC50 was 44 nM under setting [3] and 44 nM under setting [1]. `CC(C)CN1CC2(CN(Cc3ccc(-c4cc(F)c5nc(-c6ccc(S(C)(=O)=O)cc6)n(C6CC6)c5c4)cc3)C2)C1` [Example 411, 1-cyclopropyl-4-fluoro-6-(4-((6-isobutyl-2,6-diazaspiro[3.3]heptan-2-yl)methyl)phenyl)-2-(4-(methylsulfonyl)phenyl)-1H-benzo[d]imidazole]: the IC50 reads like this: under setting [3], 0.85 nM; under setting [1], 0.9 nM.

Turning to `CS(=O)(=O)c1ccc(-c2nc3c(F)cc(-c4ccc(CN5CC6(C5)CN(C5CCOCC5)C6)cc4)cc3n2C2CC2)cc1` [Example 412, 1-cyclopropyl-4-fluoro-2-(4-(methylsulfonyl)phenyl)-6-(4-((6-(tetrahydro-2H-pyran-4-yl)-2,6-diazaspiro[3.3]heptan-2-yl)methyl)phenyl)-1H-benzo[d]imidazole], the IC50 turned out to be 77 nM under setting [3] and 77 nM under setting [1]. `Cc1cc(-c2ccc(CN3CCN(CC(C)C)CC3)cc2)cc2c1nc(-c1ccc(S(C)(=O)=O)cc1)n2C` [Example 414, 6-(4-((4-isobutylpiperazin-1-yl)methyl)phenyl)-1,4-dimethyl-2-(4-(methylsulfonyl)phenyl)-1H-benzo[d]imidazole] showed an IC50 under setting [3] of 1800 nM. For the compound `CC(C)CN1CCC(N2CCC(c3ccc4nc(-c5ccc(S(C)(=O)=O)cc5)n(C5CC5)c4c3F)CC2)CC1` [Example 415, 1-cyclopropyl-7-fluoro-6-(1′-isobutyl-[1,4′-bipiperidin]-4-yl)-2-(4-(methylsulfonyl)phenyl)-1H-benzo[d]imidazole], the IC50 came out at 65 nM under setting [3] and 65 nM under setting [1].

Usually IC50 stands for the concentration at which inhibition is half-maximal.

The values above are taken from patent publication US12492188B2, “1H-benzo[D]imidazole derivatives as TLR9 inhibitors for the treatment of fibrosis” (BRISTOL-MYERS SQUIBB COMPANY, priority 2020, dated 2025).
